Experimental data: ChEMBL document CHEMBL5233223, “Dammarane-type leads panaxadiol and protopanaxadiol for drug discovery: Biological activity and structural modification” (Eur J Med Chem, 2020)

Key:
Assay type in all cases: functional, cell-based
HepG2 = test: Antiproliferative activity against human HepG2 cells assessed as cell growth inhibition
A549 = test: Antiproliferative activity against human A549 cells assessed as cell growth inhibition
HL-60 = test: Antiproliferative activity against human HL-60 cells assessed as cell growth inhibition

Q: With `CCCCCCC/C=C\CCCCCCCC(=O)O[C@H]1CC[C@@]2(C)C(CC[C@]3(C)C2C[C@@H](O)C2C([C@@](C)(O)CCC=C(C)C)CC[C@]23C)C1(C)C` (stereo partly drawn) as the compound, how does the IC50 (HepG2) read?
A: 9.2 µM

Q: What about the IC50 (A549) of the same compound?
A: 29.7 µM

Q: And the IC50 (HL-60)?
A: 11.6 µM
